# Assay results as given in article PMC2748101, “Transcriptome analysis of the responses of Staphylococcus aureus to antimicrobial peptides and characterization of the roles of vraDE and vraSR in antimicrobial resistance” (BMC Genomics, 2009).
# Like-named read-outs stand apart in the source and are kept apart here. Where a SMILES comes first, the peptide text is derived from it. Bridges are numbered along the chain shown (N, C = ends). [ ]: non-standard residue; d: D form. The star is where a group is joined. Ileψ(thiazoline)Cys = CC[C@H](C)[C@H](N)C1=N[C@H](C(=O)*)CS1; dOrn = NCCC[C@@H](N)C(=O)O
# Key:
# S. aureus Newman [1] = assay: qRT-PCR of gene induction in treated wild-type cells; assay type: cell-based, Staphylococcus aureus; conditions: 10 min; for Fold induction SA0205 / Fold induction groEL / Fold induction prsA / Fold induction vraD: 5 × MIC (temporin-L-NH2 subinhibitory 2 μg/ml, pentaglycine 20 μg/ml), treated/untreated, mean of three experiments (SD)
# S. aureus Newman [2] = system: S. aureus Newman
# S. aureus RN4220 [3] = conditions: Mueller-Hinton broth, 16-24 h, 37°C, two-fold dilution series, performed twice
# ΔvraSR/S. aureus Newman [4] = conditions: for MIC: ΔvraSR/S. aureus Newman, 16-24 h, 37°C, two-fold dilution series, performed twice
# ΔvraSR/ RN4220 [5] = conditions: Mueller-Hinton broth, 16-24 h, 37°C, two-fold dilution series, performed twice
# ΔvraDE/ RN4220 [6] = conditions: Mueller-Hinton broth, 16-24 h, 37°C, two-fold dilution series, performed twice
# ΔvraDE/S. aureus Newman [7] = conditions: Mueller-Hinton broth; for MIC: ΔvraDE/S. aureus Newman, 16-24 h, 37°C, two-fold dilution series, performed twice
# [8] = system: wild-type S. aureus Newman; assay type: cell-based, Staphylococcus aureus
# S. aureus RN4220 [9] = assay: microbe, parasite or virus in culture; conditions: Staphylococcus aureus
# ΔvraDE/ RN4220 [10] = assay: microbe, parasite or virus in culture; conditions: Staphylococcus aureus
# ΔvraSR/ RN4220 [11] = assay: microbe, parasite or virus in culture; conditions: Staphylococcus aureus
# ΔvraDE/S. aureus Newman [12] = assay: microbe, parasite or virus in culture; conditions: Staphylococcus aureus
# ΔvraSR/S. aureus Newman [13] = assay: microbe, parasite or virus in culture; conditions: Staphylococcus aureus
# [14] = S. aureus Newman, Mueller-Hinton broth, 16-24 h, 37°C, two-fold dilution series, performed twice
compound,measurement,setting,value
CC[C@H](C)[C@H](N)C1=N[C@H](C(=O)N[C@@H](CC(C)C)C(=O)N[C@H](CCC(=O)O)C(=O)N[C@H](C(=O)N[C@H]2CCCCNC(=O)[C@H](CC(N)=O)NC(=O)[C@@H](CC(=O)O)NC(=O)[C@H](Cc3cnc[nH]3)NC(=O)[C@@H](Cc3ccccc3)NC(=O)[C@H]([C@@H](C)CC)NC(=O)[C@@H](CCCN)NC2=O)[C@@H](C)CC)CS1 [Bacitracin] ({Ileψ(thiazoline)Cys}-L[dE]IK[dOrn]I[dF]H[dD]N; lactam 4-C),Fold induction SA0205,S. aureus Newman [1],51.4 (0.8) fold
same,Fold induction groEL,S. aureus Newman [1],3.6 (0.1) fold
same,Fold induction prsA,S. aureus Newman [1],27.9 (4.5) fold
same,Fold induction vraD,S. aureus Newman [1],467.5 (15.3) fold
same,Fold induction SA0205,S. aureus Newman [1]; listed as bacitracin,30-50 fold
same,Fold induction prsA,S. aureus Newman [1]; listed as bacitracin,30-50 fold
same,Fold induction vraD,S. aureus Newman [1]; listed as bacitracin,~500 fold
same,MIC,S. aureus Newman [2]; [14],20 µg/mL
same,MIC,S. aureus RN4220 [3],20 µg/mL
same,"Difference in MIC (increased sensitivity), ΔvraSR mutant versus wild-type",ΔvraSR/S. aureus Newman [4]; Mueller-Hinton broth,4 fold
same,MIC,ΔvraSR/S. aureus Newman [4]; Mueller-Hinton broth,5 µg/mL
same,MIC,ΔvraSR/ RN4220 [5],5 µg/mL
same,MIC,ΔvraDE/ RN4220 [6],2.5 µg/mL
same,"Difference in MIC, ΔvraDE mutant versus wild-type",ΔvraDE/S. aureus Newman [7],about 10 fold
same,MIC,ΔvraDE/S. aureus Newman [7],2.5 µg/mL
CCCCCCCCCC(=O)N[C@@H](Cc1c[nH]c2ccccc12)C(=O)N[C@H](CC(N)=O)C(=O)N[C@@H](CC(=O)O)C(=O)N[C@@H]1C(=O)NCC(=O)N[C@@H](CCCN)C(=O)N[C@@H](CC(=O)O)C(=O)N[C@H](C)C(=O)N[C@@H](CC(=O)O)C(=O)NCC(=O)N[C@H](CO)C(=O)N[C@@H]([C@H](C)CC(=O)O)C(=O)N[C@@H](CC(=O)c2ccccc2N)C(=O)O[C@@H]1C [Daptomycin],MIC,S. aureus Newman [2]; [14],2.5 µg/mL
same,MIC,S. aureus RN4220 [3],2.5 µg/mL
same,Effect of the ΔvraSR mutation on sensitivity,"ΔvraSR/S. aureus Newman [4]; MIC, 100%, 50% (LL-37, nisin, Pep5) or 25% (hBD3) Mueller-Hinton broth",did not affect the sensitivity
same,MIC,ΔvraSR/S. aureus Newman [4]; Mueller-Hinton broth,2.5 µg/mL
same,MIC,ΔvraSR/ RN4220 [5],2.5 µg/mL
same,MIC,ΔvraDE/ RN4220 [6],2.5 µg/mL
same,MIC,ΔvraDE/S. aureus Newman [7],2.5 µg/mL
O=C(O)CN(CCOCCOCCN(CC(=O)O)CC(=O)O)CC(=O)O [EGTA],Growth of wild-type strain in the presence of the antimicrobial,[8],grew significantly
CN[C@H](CC(C)C)C(=O)N[C@H]1C(=O)N[C@@H](CC(N)=O)C(=O)N[C@H]2C(=O)N[C@H]3C(=O)N[C@H](C(=O)N[C@H](C(=O)O)c4cc(O)cc(O)c4-c4cc3ccc4O)[C@H](O)c3ccc(c(Cl)c3)Oc3cc2cc(c3O[C@@H]2O[C@H](CO)[C@@H](O)[C@H](O)[C@H]2O[C@H]2C[C@](C)(N)[C@H](O)[C@H](C)O2)Oc2ccc(cc2Cl)[C@H]1O [Vancomycin],MIC,S. aureus RN4220 [9],1 µg/mL
same,MIC,ΔvraDE/ RN4220 [10],1 µg/mL
same,MIC,S. aureus Newman [2],1 µg/mL
same,MIC,ΔvraSR/ RN4220 [11],0.5 µg/mL
same,MIC,ΔvraDE/S. aureus Newman [12],1 µg/mL
same,MIC,ΔvraSR/S. aureus Newman [13],1 µg/mL
CO/N=C(\C(=O)N[C@@H]1C(=O)N2C(C(=O)O)=C(COC(C)=O)CS[C@H]12)c1csc(N)n1 [cefotaxime],Growth of wild-type strain in the presence of the antimicrobial,[8],grew significantly
CN(C)CCCN1c2ccccc2Sc2ccc(Cl)cc21 [chlorpromazine],Growth of wild-type strain in the presence of the antimicrobial,[8],grew significantly
A(D-Glu)K(D-Ala)GGGGGA(D-Glu)K(D-Ala) [Pentaglysin],"Induction of vraD, SA0205, prsA and groEL (in words)",S. aureus Newman [1]; 20 μg/ml,did not induce any of the four genes
same,Fold induction SA0205,S. aureus Newman [1],1.3 (0.1) fold
same,Fold induction groEL,S. aureus Newman [1],1.1 (0.0) fold
same,Fold induction prsA,S. aureus Newman [1],1.3 (0.0) fold
same,Fold induction vraD,S. aureus Newman [1],1.0 (0.0) fold
same,Antimicrobial activity at the concentration used,S. aureus Newman [2]; 20 μg/ml,not antimicrobial
